# Values of other authors in paper PMC5525545 (Nature, 2017).
# What was measured:
# AT2R = details: activation of AT2R
# [1] = patients with post-herpetic neuralgia
# [2] = several neuropathic pain models in rodents
# [3] = system: AngII-induced neuronal excitability
smiles,measurement,setting,value
CCCCOC(=O)NS(=O)(=O)c1sc(CC(C)C)cc1-c1ccc(Cn2ccnc2)cc1 [Compound 21],beneficial in vivo effects,AT2R,"inducing pressure natriuresis, lowering blood pressure, conferring acute vaso-relaxation, and exhibiting organ protective effects"
COc1ccc2c(c1OCc1ccccc1)C[C@@H](C(=O)O)N(C(=O)C(c1ccccc1)c1ccccc1)C2 [EMA401],efficacy in phase II clinical trials,[1],demonstrated efficacy
Cc1cc(Cn2cnc3c2C[C@@H](C(=O)O)N(C(=O)C(c2ccccc2)c2ccccc2)C3)ccc1N(C)C [PD123319],oral bioavailability,[2],exhibits oral bioavailability
same,effect on AngII-induced neuronal excitability,[3],blocks AngII-induced neuronal excitability
